Eleven molecules from PubChem BioAssay AID286 (DTP/NCI, 2004) can be followed below.

This experiment concerns BDF1 mice, M5076 sarcoma ip, median survival T/C. In words: NCI In Vivo Anticancer Drug Screen. Data for tumor model Sarcoma M5076 (intraperitoneal) in B6D2F1 (BDF1) mice. The following applies: endpoint: median survival time, higher = longer survival. How it is done:
The antitumor activity of compounds was measured in mice bearing transplantable tumors. Survival or tumor size were measured and the results are expressed as the measurement made in the treated group (T) divided by the measurement made in the vehicle treated control group (C). The tumor model used in this assay is Sarcoma M5076 (intraperitoneal) in B6D2F1 (BDF1) mice

[1] abbreviates: dose: 10.0 mg/kg/injection, schedule: Q01DX009 (ip), vehicle: Klucel (hydroxypropylcellulose) (HPC).
Setting [2] is: dose: 20.0 mg/kg/injection, schedule: Q01DX009 (ip), vehicle: Klucel (hydroxypropylcellulose) (HPC).

“And” between values parts separate entries of the source, which are not always exact repeats. Identical values can stand only once. Inconclusive results and toxic doses are left out. Starred links: 1 amine or outer side, 2 acyl side, 3 side chain; linkers in the order of their positions; H or OH if unused. Positions of bridges follow the written chain, without caps; N, C: chain ends. Non-standard residues stand in square brackets, D forms with d. Residues, ends and D or L forms follow the SMILES beside them. Chains are numbered I, II in the order given. ξ: configuration not given here. *: point of attachment. Quinaldoyl(3-OH,6-OMe) = COc1ccc2nc(C(=O)*)c(O)cc2c1; X1 = CCC(=O)OC1CC=NN([*:1])C1C(=O)[*:2]; X2 = CC(=O)OC1CC=NN([*:1])C1C(=O)[*:2]; ξNMeVal(3-OH) = CNC(C(=O)O)C(C)(C)O; X3 = O=C(C1CCCNN1[*:1])[*:2]; Sar = CNCC(=O)O

In the case of `COc1ccc2nc(C(=O)NC3COC(=O)C(C(C)(C)O)N(C)C(=O)CN(C)C(=O)CNC(=O)C4CCCNN4C(=O)C(NC(=O)c4nc5ccc(OC)cc5cc4O)COC(=O)C(C(C)(C)O)N(C)C(=O)CN(C)C(=O)CNC(=O)C4C(OC(C)=O)CC=NN4C3=O)c(O)cc2c1` (stereo unspecified) (I: {Quinaldoyl(3-OH,6-OMe)}-S[X2]G[Sar][ξNMeVal(3-OH)] / II: {Quinaldoyl(3-OH,6-OMe)}-S[X3]G[Sar][ξNMeVal(3-OH)]; ester I:1-II:C, I:C-II:1; configuration not given here), the T/C (dose: 10.0 micrograms/kg/injection, schedule: Q01DX009 (ip), vehicle: DMSO) was 155 % of control; the T/C (dose: 12.5 micrograms/kg/injection, schedule: Q01DX009 (ip), vehicle: DMSO) is 157 % of control; the T/C (dose: 20.0 micrograms/kg/injection, schedule: Q01DX009 (ip), vehicle: DMSO) was 190 % of control; the T/C (dose: 25.0 micrograms/kg/injection, schedule: Q01DX009 (ip), vehicle: DMSO) is 170 % of control; the T/C (dose: 50.0 micrograms/kg/injection, schedule: Q01DX009 (ip), vehicle: DMSO) is 179 % of control.
Turning to `CN(C)c1nc(N(C)C)nc(N(C)C)n1`, the T/C by setting is: (dose: 40.0 mg/kg/injection, schedule: Q04DX005 (ip), vehicle: Klucel (hydroxypropylcellulose) (HPC)) 160 % of control; (dose: 80.0 mg/kg/injection, schedule: Q04DX005 (ip), vehicle: Klucel (hydroxypropylcellulose) (HPC)) 188 % of control; (dose: 100.0 mg/kg/injection, schedule: Q04DX005 (ip), vehicle: Klucel (hydroxypropylcellulose) (HPC)) 112 % of control; (dose: 160.0 mg/kg/injection, schedule: Q04DX005 (ip), vehicle: Klucel (hydroxypropylcellulose) (HPC)) 104 % of control; (dose: 200.0 mg/kg/injection, schedule: Q04DX005 (ip), vehicle: Klucel (hydroxypropylcellulose) (HPC)) 119 % of control; (dose: 400.0 mg/kg/injection, schedule: Q04DX005 (ip), vehicle: Klucel (hydroxypropylcellulose) (HPC)) 123 % of control.
As for `CC(=O)/C(=C\c1ccc(Cl)c(Cl)c1)C(=O)CCN(C)C`, the T/C runs as follows: (dose: 12.5 mg/kg/injection, schedule: Q04DX004 (ip), vehicle: saline) 100 % of control; (dose: 25.0 mg/kg/injection, schedule: Q04DX004 (ip), vehicle: saline) 97 % of control; (dose: 50.0 mg/kg/injection, schedule: Q04DX004 (ip), vehicle: saline) 101 % of control; (dose: 100.0 mg/kg/injection, schedule: Q04DX004 (ip), vehicle: saline) 86 % of control.
With `CC1(C)N=C(N)N=C(N)N1c1ccc(CCCCc2ccc(S(=O)(=O)F)cc2Cl)c(Cl)c1`, the T/C by setting is: (dose: 5.0 mg/kg/injection, schedule: Q01DX009 (ip), vehicle: Klucel (hydroxypropylcellulose) (HPC)) 220 % of control; under setting [1], 251 % of control; under setting [2], 303 % of control; (dose: 40.0 mg/kg/injection, schedule: Q01DX009 (ip), vehicle: Klucel (hydroxypropylcellulose) (HPC)) 388 % of control; (dose: 40.0 mg/kg/injection, schedule: Q01DX009 (ip), vehicle: saline with Tween-80) 224 % of control; (dose: 60.0 mg/kg/injection, schedule: Q01DX009 (ip), vehicle: saline with Tween-80) 224 % of control.
As for `CC[C@]1(O)C[C@H]2CN(CCc3c([nH]c4ccccc34)[C@@](C(=O)OC)(c3cc4c(cc3OC)N(C)[C@H]3[C@@](O)(C(=O)OC)[C@H](OC(C)=O)[C@]5(CC)C=CCN6CC[C@]43[C@@H]65)C2)C1`, the T/C runs as follows: (dose: 0.38 mg/kg/injection, schedule: Q04DX005 (ip), vehicle: saline) 180 % of control; (dose: 0.75 mg/kg/injection, schedule: Q04DX005 (ip), vehicle: saline) 293 % of control; (dose: 1.5 mg/kg/injection, schedule: Q04DX005 (ip), vehicle: saline) 202 % of control and 401 % of control; (dose: 3.0 mg/kg/injection, schedule: Q04DX005 (ip), vehicle: saline) 401 % of control and 160 % of control.
As to `COc1cc(NCc2ccc3nc(N)nc(N)c3c2C)cc(OC)c1OC`, the T/C was 173 % of control under setting [1]; 168 % of control (dose: 15.0 mg/kg/injection, schedule: Q04DX005 (ip), vehicle: Klucel (hydroxypropylcellulose) (HPC)); 173 % of control under setting [2]; 171 % of control (dose: 30.0 mg/kg/injection, schedule: Q04DX005 (ip), vehicle: Klucel (hydroxypropylcellulose) (HPC)); 206 % of control (dose: 60.0 mg/kg/injection, schedule: Q04DX005 (ip), vehicle: Klucel (hydroxypropylcellulose) (HPC)).
For `CC(=O)OCC1OC(n2ncc(=O)[nH]c2=O)C(OC(C)=O)C1OC(C)=O` (stereo unspecified), the T/C reads like this: (dose: 150.0 mg/kg/injection, schedule: Q04DX004 (ip), vehicle: Klucel (hydroxypropylcellulose) (HPC)) 102 % of control; (dose: 300.0 mg/kg/injection, schedule: Q04DX004 (ip), vehicle: Klucel (hydroxypropylcellulose) (HPC)) 102 % of control; (dose: 600.0 mg/kg/injection, schedule: Q04DX004 (ip), vehicle: Klucel (hydroxypropylcellulose) (HPC)) 102 % of control; (dose: 1200.0 mg/kg/injection, schedule: Q04DX004 (ip), vehicle: Klucel (hydroxypropylcellulose) (HPC)) 87 % of control.
Take `CCOC(=O)C(N)CSC(=O)NC` (stereo unspecified): the T/C (dose: 75.0 mg/kg/injection, schedule: Q04DX004 (ip), vehicle: saline) is 103 % of control; the T/C (dose: 150.0 mg/kg/injection, schedule: Q04DX004 (ip), vehicle: saline) was 109 % of control; the T/C (dose: 300.0 mg/kg/injection, schedule: Q04DX004 (ip), vehicle: saline) is 110 % of control; the T/C (dose: 600.0 mg/kg/injection, schedule: Q04DX004 (ip), vehicle: saline) is 178 % of control.
For the molecule `N#CC(C#N)=NNc1ccc2cn[nH]c2c1`, the T/C (dose: 12.5 mg/kg/injection, schedule: Q04DX004 (ip), vehicle: Klucel (hydroxypropylcellulose) (HPC)) is 105 % of control; the T/C (dose: 25.0 mg/kg/injection, schedule: Q04DX004 (ip), vehicle: Klucel (hydroxypropylcellulose) (HPC)) was 95 % of control; the T/C (dose: 50.0 mg/kg/injection, schedule: Q04DX004 (ip), vehicle: Klucel (hydroxypropylcellulose) (HPC)) was 90 % of control; the T/C (dose: 100.0 mg/kg/injection, schedule: Q04DX004 (ip), vehicle: Klucel (hydroxypropylcellulose) (HPC)) is 103 % of control.
In the case of `COc1cc2nc3occc3c(OC)c2cc1OCC(O)C(C)(C)O` (stereo unspecified), the T/C was 106 % of control (dose: 2.0 mg/kg/injection, schedule: Q01DX009 (ip), vehicle: Klucel (hydroxypropylcellulose) (HPC)); 117 % of control (dose: 4.0 mg/kg/injection, schedule: Q01DX009 (ip), vehicle: Klucel (hydroxypropylcellulose) (HPC)); 106 % of control (dose: 8.0 mg/kg/injection, schedule: Q01DX009 (ip), vehicle: Klucel (hydroxypropylcellulose) (HPC)); 113 % of control (dose: 16.0 mg/kg/injection, schedule: Q01DX009 (ip), vehicle: Klucel (hydroxypropylcellulose) (HPC)); 106 % of control (dose: 32.0 mg/kg/injection, schedule: Q01DX009 (ip), vehicle: Klucel (hydroxypropylcellulose) (HPC)).
Consider `CCC(=O)OC1CC=NN2C(=O)C(NC(=O)c3nc4ccc(OC)cc4cc3O)COC(=O)C(C(C)(C)O)N(C)C(=O)CN(C)C(=O)CNC(=O)C3C(OC(C)=O)CC=NN3C(=O)C(NC(=O)c3nc4ccc(OC)cc4cc3O)COC(=O)C(C(C)(C)O)N(C)C(=O)CN(C)C(=O)CNC(=O)C12` (stereo unspecified) (I: {Quinaldoyl(3-OH,6-OMe)}-S[X1]G[Sar][ξNMeVal(3-OH)] / II: {Quinaldoyl(3-OH,6-OMe)}-S[X2]G[Sar][ξNMeVal(3-OH)]; ester I:1-II:C, I:C-II:1; configuration not given here), for which the T/C runs as follows: (dose: 18.75 micrograms/kg/injection, schedule: Q01DX009 (ip), vehicle: DMSO) 117 % of control; (dose: 37.5 micrograms/kg/injection, schedule: Q01DX009 (ip), vehicle: DMSO) 165 % of control and 169 % of control; (dose: 75.0 micrograms/kg/injection, schedule: Q01DX009 (ip), vehicle: DMSO) 191 % of control and 160 % of control; (dose: 150.0 micrograms/kg/injection, schedule: Q01DX009 (ip), vehicle: DMSO) 165 % of control.
